Assay results from PMC5829821, “Mmf1p Couples Amino Acid Metabolism to Mitochondrial DNA Maintenance in Saccharomyces cerevisiae” (mBio, 2018).

Legend:
Type in all cases: biochemical
[1] = target: T1, RidA (Salmonella enterica, UniProt Q7CP78); assay: coupled: 2AA generated by Ilv1p([…]-576) from L-serine, pyruvate at A230; conditions: 50 mM CHES pH 9.5, 0.6 µM Ilv1p, 1.3 µM RidA
T1 construct: purified RidA, preparation described in earlier work
T1 sequence (Q7CP78 1-128): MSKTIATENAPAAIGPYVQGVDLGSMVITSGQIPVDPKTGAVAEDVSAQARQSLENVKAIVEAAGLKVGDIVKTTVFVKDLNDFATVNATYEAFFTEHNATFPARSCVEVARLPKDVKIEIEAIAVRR

[2] = target: T2, Mmf1p(21−147) (Saccharomyces cerevisiae, UniProt P40185); assay: as above; conditions: 50 mM CHES pH 9.5, 0.6 µM Ilv1p, 1.3 µM Mmf1p
T2 construct: gene MMF1
T2 sequence (P40185 21-145): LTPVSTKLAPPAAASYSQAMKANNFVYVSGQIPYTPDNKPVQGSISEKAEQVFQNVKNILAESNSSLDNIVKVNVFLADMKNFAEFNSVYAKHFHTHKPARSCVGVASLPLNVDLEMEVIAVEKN

[3] = target: T3, Ilv1p(46−576) (Saccharomyces cerevisiae, UniProt P00927); conditions: 120 mM L-serine, 50 mM potassium phosphate pH 8; allosteric
T3 construct: gene ILV1
T3 sequence (P00927 46-576): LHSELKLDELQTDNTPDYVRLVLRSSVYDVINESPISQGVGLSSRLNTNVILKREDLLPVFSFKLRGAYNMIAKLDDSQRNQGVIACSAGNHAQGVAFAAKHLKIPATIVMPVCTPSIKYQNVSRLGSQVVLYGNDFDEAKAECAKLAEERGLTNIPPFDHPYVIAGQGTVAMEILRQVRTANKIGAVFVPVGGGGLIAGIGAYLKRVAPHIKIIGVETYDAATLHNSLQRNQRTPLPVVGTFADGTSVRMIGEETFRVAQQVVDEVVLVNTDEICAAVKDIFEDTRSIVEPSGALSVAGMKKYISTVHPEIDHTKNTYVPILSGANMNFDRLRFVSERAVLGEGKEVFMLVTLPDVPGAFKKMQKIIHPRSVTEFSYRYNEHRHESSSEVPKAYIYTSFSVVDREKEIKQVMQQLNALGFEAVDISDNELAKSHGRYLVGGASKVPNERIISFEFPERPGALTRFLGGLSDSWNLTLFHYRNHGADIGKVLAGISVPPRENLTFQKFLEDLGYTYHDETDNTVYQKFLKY

[4] = target: T3, Ilv1p(46−576); assay: pyruvate formation at A230, Michaelis-Menten fit; conditions: 50 mM potassium phosphate pH 8

Question: With C=C(N)C(=O)O [2-aminoacrylate] as the molecule, how does the “coupled: 2AA generated by Ilv1p(46-576) from L-serine, pyruvate at A230” value [1] read?
Answer: 2AA-hydrolyzing activity of Mmf1p was indistinguishable from that of the well-characterized RidA enzyme

Question: And the “coupled: 2AA generated by Ilv1p(46-576) from L-serine, pyruvate at A230” value [2]?
Answer: released 2AA, which Mmf1p used as a substrate

Question: CC[C@H](C)[C@H](N)C(=O)O [isoleucine] was tested. Which “inhibition at 3.3 mM” value [3] did it give?
Answer: insensitive to isoleucine concentrations that completely inhibited the wild-type enzyme

Question: With N[C@@H](CO)C(=O)O [L-serine] as the molecule, how does the “pyruvate formation at A230, Michaelis-Menten fit” value [4] read?
Answer: In vitro, Ilv1p dehydrated serine and released 2AA
